# Source: patent US20140051762A1, “POLYCATIONIC COMPOUNDS AND USES THEREOF” (priority 2004, published 2014)
# Where “and” joins values, the source holds several entries; their conditions need not be identical. Equal values may be shown once.
# How the values were obtained:
# Factor Xa [1] = assay: anti-heparin assay, % Factor Xa inhibition at single concentration (chromogenic substrate S-2765); format: biochemical; details: Single concentration (10 ug/ml)
# Experimental: (§1) The following example illustrates the heparin antagonistic effects of polycationic compounds of the present invention. To determine the anti-heparin activity of the polycationic compounds an assay measuring the percent inhibition using a fixed concentration of polycationic compound or concentrations of polycationic compounds causing lysis of 50% of human red blood cells were conducted.
# (§2) 10 IU of anti-thrombin was dissolved in 10 ml of buffer, resulting in a 1 IU/ml stock solution (250×) of the anti-thrombin. The 1 IU/ml (250×) stock solution of anti-thrombin and a 336 mM stock solution of NaCl were diluted into a total volume of 50 μl buffer so that the final anti-thrombin concentration was 0.004 IU/sample well and the NaCl was 150 mM/sample well. 1 μl of the compound to be tested, final concentration 10 μg/ml (corresponding to 0.5 logarithmic antagonist dilution) is added to the sample well. The samples are mixed and allowed to incubate at room temperature for 20 minutes. 50 μl of factor Xa dissolved in buffer is added to the sample well to a final concentration of 0.14 knat/well (2 μl of the 7.1 kna/1 ml stock solution to a final sample well buffer volume of 100 μl). The samples were mixed and further incubated at room temperature for 10 minutes. 10 μl of a 4 mM stock solution of the substrate S-2765 was added to each sample well for a final concentration of 0.4 mM in each sample well. The samples were mixed and hydrolyses of the chromogenic substrate Z-D-Arg-Gly-Arg-pNA (S-2765), thus liberating the chromophoric group pNA (p-nitroaniline), was monitored at 405 nm. The samples were mixed every 30 seconds to maintain a uniform mixture. ThermoLabsystems Multiskan Spectrum spectrophotometer was used to measure the absorbance spectrums. The increase in absorbance was proportional to the enzyme (factor Xa) activity. The % inhibition of factor Xa was determined using a standard curve.
# Factor Xa [2] = assay: Factor Xa inhibition EC50 (fixed heparin concentrations, different amounts of heparin antagonist); format: biochemical; details: read-out: FactorXa Inhibition: EC50
# Experimental: as §1, §2
# (§3) Factor Xa Inhibition: EC50. To determine the concentration of polycationic compound that causes about 50% […], fixed heparin concentrations were used and different amounts of heparin antagonists were added.
# human red blood cells = assay: lysis of 50% of human red blood cells (HC50); format: cell-based
# Experimental: as §1, §3
# heparin = assay: effect on coagulation time and heparin efficacy
# Experimental: The following example illustrates the effect of a polycationic compound of the present invention on coagulation time. The anti-heparin assay as described herein was used. The assay contained either 1 mg/L, 2 mg/L or 4 mg/I of heparin and increasing amounts of Compound 26 was added.
# [3] = system: FGF2-induced angiogenesis in the CAM model; assay: FGF2-induced angiogenesis in the chick chorioallantoic membrane (CAM) model; format: in vivo, chick embryo; details: for % inhibition ± SEM / Branch pts ± SEM: Table 3; for Mean % inhibition ± SEM: Table 4, n = 8
# Experimental: The following example illustrates the anti-angiogenic effect of exemplary polycationic compounds of the present invention. Ten-day old embryos were purchased from Spafas, Inc. (Preston, Conn.) and were incubated at 37° C. with 55% relative humidity. In the dark with the help of a candling lamp, a small hole was punctured in the shell concealing the air sac with a hypodermic needle. A second hole was punctured in the shell on the broadside of the egg directly over an avascular portion of the embryonic membrane, as observed during candling. A false air sac was created beneath the second hole by the application of negative pressure to the first hole, which caused the chorioallantoic membrane (CAM) to separate from the shell. A window, approximately 1.0 cm^2, was cut in the shell over the dropped CAM with the use of a small crafts grinding wheel (Dremel, Division of Emerson Electric Company Racine, Wis.) which allowed direct access to the underlying CAM. Filter disks of #1 filter paper (Whatman International, United Kingdom) were soaked in 3 mg/mL cortisone acetate (Sigma, St. Louis, Mo.) in a solution of 95% ethanol and water and subsequently air dried under sterile conditions. FGF2 (Life Technologies, Gaithersburg, Md.) was used to grow vessels on the CAMs of 10 day old chick embryos. Sterile filter disks adsorbed with FGF2 dissolved in PBS at 1μg/mL were placed on growing CAMs. […] At 24 h, test compounds or control vehicle was added directly to CAM topically.
# (§4) CAM tissue directly beneath FGF2-saturated filter disk was resected from embryos treated 48 hours prior with test compound or control. Tissues were washed three times with PBS. Sections were placed in a 35-mm petri dish (Nalgen Nunc, Rochester, N.Y.) and examined under a SV6 stereomicroscope (Karl Zeiss, Thornwood, N.Y.) at 50× magnification. Digital images of CAM sections adjacent to filters were collected using a 3-CCD color video camera system (Toshiba America, New York, N.Y.) and analyzed using Image-Pro Plus software (Media Cybernetics, Silver Spring, Md.). Table 4 contains the number of vessel branch points contained in a circular region equal to the area of a filter disk counted for each section.
# as §4, with “48 h” for “48 hours”, “with” for “with test”, “dish (Nalge” for “dish (Nalgen”, “analyzed with the” for “analyzed using”, “Md.).” for “Md.). Table 4 contains the number of vessel branch points contained in a circular region equal to the area of a filter disk counted for each section.”
# [4] = Heparin 1 mg/L, Compound 26 1.25 mg/L
# [5] = Heparin 1 mg/L, Compound 26 2 mg/L
# [6] = Heparin 1 mg/L, Compound 26 2.5 mg/L
# [7] = Heparin 1 mg/L, Compound 26 4 mg/L
# [8] = Heparin 2 mg/L, Compound 26 2.5 mg/L
# [9] = Heparin 2 mg/L, Compound 26 4 mg/L
# [10] = Heparin 2 mg/L, Compound 26 5 mg/L
# [11] = Heparin 2 mg/L, Compound 26 6 mg/L
# [12] = Heparin 2 mg/L, Compound 26 10 mg/L
# [13] = Heparin 4 mg/L, Compound 26 2.5 mg/L
# [14] = Heparin 4 mg/L, Compound 26 4 mg/L
# [15] = Heparin 4 mg/L, Compound 26 5 mg/L
# [16] = Heparin 4 mg/L, Compound 26 6 mg/L
# [17] = Heparin cell empty (4 mg/L from line above), Compound 26 10 mg/L
compound,measurement,setting,value
CC(C)(C)c1cc(NC(=O)c2cccc(C(=O)Nc3cc(C(C)(C)C)cc(NC(=O)[C@H](N)CCCNC(=N)N)c3SCCN)c2)c(SCCN)c(NC(=O)[C@H](N)CCCNC(=N)N)c1 [Compound 7],% FactorXa Inhibition,Factor Xa [1],5.506%
same,EC50,Factor Xa [2],3.7 µM
same,HC50,human red blood cells,715 μg/ml and 519 μM
NCCOc1cc(OCCN)c(C(=O)Nc2cccc(N)c2SCCN)cc1C(=O)Nc1cccc(N)c1SCCN [Compound 25],% FactorXa Inhibition,Factor Xa [1],0%
same,EC50,Factor Xa [2],5.3 µM
same,HC50,human red blood cells,">2,000 μg/ml"
N=C(N)NCCC[C@@H](N)C(=O)Nc1cccc(NC(=O)c2cc(C(=O)Nc3cccc(NC(=O)[C@H](N)CCCNC(=N)N)c3SCCN)c(OCCN)cc2OCCN)c1SCCN [Compound 26],% FactorXa Inhibition,Factor Xa [1],48.14%
same,Coagulation Time,heparin; [4],42.8 s
same,Heparin Efficacy,heparin; [4],0.6506
same,Coagulation Time,heparin; [5],33.4 s
same,Heparin Efficacy,heparin; [5],0.2402
same,Coagulation Time,heparin; [6],31.3 s
same,Heparin Efficacy,heparin; [6],0.1485
same,Coagulation Time,heparin; [7],27.9 s
same,Heparin Efficacy,heparin; [7],−1.67E−08
same,Coagulation Time,heparin; [8],40.2 s
same,Heparin Efficacy,heparin; [8],0.1108
same,Coagulation Time,heparin; [9],33.9 s
same,Heparin Efficacy,heparin; [9],0.03149
same,Coagulation Time,heparin; [10],31.9 s
same,Heparin Efficacy,heparin; [10],0.006297
same,Coagulation Time,heparin; [11],31.8 s
same,Heparin Efficacy,heparin; [11],0.005038
same,Coagulation Time,heparin; [12],34.4 s
same,Heparin Efficacy,heparin; [12],0.03778
same,Coagulation Time,heparin; [13],124.8 s
same,Heparin Efficacy,heparin; [13],0.513
same,Coagulation Time,heparin; [14],87.4 s
same,Heparin Efficacy,heparin; [14],0.3108
same,Coagulation Time,heparin; [15],55.8 s
same,Heparin Efficacy,heparin; [15],0.14
same,Coagulation Time,heparin; [16],35.4 s
same,Heparin Efficacy,heparin; [16],0.02973
same,Coagulation Time,heparin; [17],29.9 s
same,Heparin Efficacy,heparin; [17],−2.06E−09
same,effect on coagulation time (in words),heparin; varying concentrations of heparin,decreased the coagulation time
same,EC50,Factor Xa [2],2 µM
same,% inhibition ± SEM,[3]; 1.0 ug + FGF2 (1 ug),55 ± 8%
same,Branch pts ± SEM,[3]; 1.0 ug + FGF2 (1 ug),123 ± 7
same,HC50,human red blood cells,">2,000 μg/ml"
N=C(N)NCCOc1cc(OCCNC(=N)N)c(C(=O)Nc2cccc(N)c2SCCNC(=N)N)cc1C(=O)Nc1cccc(N)c1SCCNC(=N)N [Compound 27],% FactorXa Inhibition,Factor Xa [1],8.886%
same,EC50,Factor Xa [2],9.7 µM
same,% inhibition ± SEM,[3]; 0.1 ug + FGF2 (1 ug),34 ± 9%
same,Branch pts ± SEM,[3]; 0.1 ug + FGF2 (1 ug),144 ± 9
same,HC50,human red blood cells,">2,000 μg/ml"
COc1ccc(NC(=O)C(CCCCN)NC(=O)c2cc(NC(=O)C(CCCCN)NC(=O)c3cc(NC(=O)C(CCCCN)NC(=O)c4cc(NC(=O)C(N)CCCCN)ccc4OC)ccc3OC)ccc2OC)cc1C(N)=O (stereo not shown) [Compound 50],Mean % inhibition ± SEM,[3]; 1.0 ug + FGF2 (1 ug),21 ± 9%
same,Mean % inhibition ± SEM,[3]; 3.0 ug + FGF2 (1 ug),42 ± 8%
same,Mean % inhibition ± SEM,[3]; 10 ug + FGF2 (1 ug),66 ± 7%
same,HC50,human red blood cells,637 μg/ml and 377 μM
